Read-outs that look alike come from different tables or passages of the source.
Key:
ABCF2 = target: T1, ABCF2 (Homo sapiens, UniProt Q9UG63); experiment: ATPase profile (ATP acyl phosphate probe); type: binding
T1 construct: to get the native cell lysate; host or cells: A375 cell lysate

YME1L1 = target: T2, YME1L1 (Homo sapiens, UniProt Q96TA2); experiment: ATPase profile (ATP acyl phosphate probe); type: binding; settings: YME1L1, SEQ ID NO: 233, ATP BS
T2 construct: to get the native cell lysate; endogenous in cells; host or cells: A375 cell lysate

NOP2 = target: T3, NOP2 (Homo sapiens, UniProt P46087); experiment: ATPase profile (ATP acyl phosphate probe); type: binding; settings: NOP2, SEQ ID NO: 136, ATP BS
T3 construct: to get the native cell lysate; endogenous in cells; host or cells: A375

CCT5 = target: T4, CCT5 (Homo sapiens, UniProt P48643); experiment: ATPase profile (ATP acyl phosphate probe); type: binding; settings: CCT5, SEQ ID NO: 54, ATP BS
T4 construct: to get the native cell lysate; host or cells: A375 cell lysate

PSMC6 = target: T5, PSMC6 (Homo sapiens, UniProt P62333); experiment: ATPase profile (ATP acyl phosphate probe); type: binding; settings: PSMC6, SEQ ID NO: 178, ATP BS
T5 construct: to get the native cell lysate; endogenous in cells; host or cells: A375 cell lysate

RBKS = target: T6, RBKS (Homo sapiens, UniProt Q9H477); experiment: ATPase profile (ATP acyl phosphate probe); type: binding; settings: SEQ ID NO: 182, ATP BS
T6 construct: to get the native cell lysate; endogenous in cells; host or cells: A375 cell lysate

TOR1A = target: T7, TOR1A (Homo sapiens, UniProt O14656); experiment: ATPase profile (ATP acyl phosphate probe); type: binding; settings: SEQ ID NO: 203, ATP BS
T7 construct: to get the native cell lysate; endogenous in cells; host or cells: A375 cell lysate

HSP90AB1, HSP90AB3P = target: T8, HSP90AB1, HSP90AB3P (Homo sapiens, UniProt P08238); experiment: ATPase profile (ATP acyl phosphate probe); type: binding; settings: SEQ ID NO: 98, ATP BS
T8 construct: to get the native cell lysate; endogenous in cells; host or cells: A375

PRKAG1 = PRKAG1 (Homo sapiens, UniProt P54619); experiment: ATPase profile (ATP acyl phosphate probe); type: binding
ACTR2 = target: T9, ACTR2 (Homo sapiens, UniProt P61160); experiment: ATPase profile (ATP acyl phosphate probe); type: binding
T9 construct: to get the native cell lysate; host or cells: A375 cell lysate

ABCD3 = target: T10, ABCD3 (Homo sapiens, UniProt P28288); experiment: ATPase profile (ATP acyl phosphate probe); type: binding; settings: ABCD3, SEQ ID NO: 13, ATP BS
T10 construct: to get the native cell lysate; host or cells: A375 cell lysate

CCT2 = target: T11, CCT2 (Homo sapiens, UniProt P78371); experiment: ATPase profile (ATP acyl phosphate probe); type: binding; settings: CCT2, SEQ ID NO: 51, ATP BS
T11 construct: to get the native cell lysate; host or cells: A375 cell lysate

ABCB6 = target: T12, ABCB6 (Homo sapiens, UniProt Q9NP58); experiment: ATPase profile (ATP acyl phosphate probe); type: binding; settings: ABCB6, SEQ ID NO: 3, ATP BS
T12 construct: to get the native cell lysate; host or cells: A375 cell lysate

RFC4 = target: T13, RFC4 (Homo sapiens, UniProt P35249); experiment: ATPase profile (ATP acyl phosphate probe); type: binding; settings: RFC4, SEQ ID NO: 185, ATP BS
T13 construct: to get the native cell lysate; endogenous in cells; host or cells: A375 cell lysate

MCM6 = target: T14, MCM6 (Homo sapiens, UniProt P33991+Q14566); experiment: ATPase profile (ATP acyl phosphate probe); type: binding; settings: read-out: Inhibition (%) by 1 μM Z36-MP5
T14 construct: to get the native cell lysate; endogenous in cells; host or cells: A375

NARS = target: T15, NARS (Homo sapiens, UniProt O43776); experiment: ATPase profile (ATP acyl phosphate probe); type: binding; settings: SEQ ID NO: 131, ATP BS
T15 construct: to get the native cell lysate; endogenous in cells; host or cells: A375

TRA1 = target: T16, TRA1 (Homo sapiens, UniProt P14625); experiment: ATPase profile (ATP acyl phosphate probe); type: binding; settings: TRA1, SEQ ID NO: 208, ATP BS
T16 construct: to get the native cell lysate; endogenous in cells; host or cells: A375 cell lysate

[1] = test system: Mi-2β function (CXCL9, CXCL10, IRF1 expression) in A375 cells; experiment: Cell-based assay of inhibitory activity on Mi-2β function, A375; settings: summary of Table 3 (A375 and B16)
Method: The total RNA was extracted with QIAGEN RNeasy kit […] for cDNA synthesis with SuperScript II Reverse Transcriptase (Invitrogen). In total, 40 ng cDNA was used for quantitative real-time PCR amplification by TaqMan Gene Expression Master Mix (Thermo Fisher Scientific). The relative transcript levels were normalized with GAPDH expression. The data were calculated with the comparative CT method.

HSP90B2P, TRA1 = target: T17, HSP90B2P, TRA1 (Homo sapiens, UniProt P14625); experiment: ATPase profile (ATP acyl phosphate probe); type: binding; settings: TRA1, SEQ ID NO: 99, ATP BS, read-out: Inhibition (%) by 1 μM Z36-MP5
T17 construct: to get the native cell lysate; endogenous in cells; host or cells: A375

NUDT2 = target: T18, NUDT2 (Homo sapiens, UniProt P50583); experiment: ATPase profile (ATP acyl phosphate probe); type: binding
T18 construct: to get the native cell lysate; endogenous in cells; host or cells: A375

XRCC3 = target: T19, XRCC3 (Homo sapiens, UniProt O43542); experiment: ATPase profile (ATP acyl phosphate probe); type: binding; settings: XRCC3, SEQ ID NO: 230, ATP BS
T19 construct: to get the native cell lysate; endogenous in cells; host or cells: A375 cell lysate

UBA2 = target: T20, UBA2 (Homo sapiens, UniProt Q9UBT2); experiment: ATPase profile (ATP acyl phosphate probe); type: binding
T20 construct: to get the native cell lysate; endogenous in cells; host or cells: A375 cell lysate

SPG7 = target: T21, SPG7 (Homo sapiens, UniProt Q9UQ90); experiment: ATPase profile (ATP acyl phosphate probe); type: binding; settings: SPG7, SEQ ID NO: 197, ATP BS
T21 construct: to get the native cell lysate; endogenous in cells; host or cells: A375 cell lysate

CNP = target: T22, CNP (Homo sapiens, UniProt P09543); experiment: ATPase profile (ATP acyl phosphate probe); type: binding; settings: SEQ ID NO: 61, ATP BS
T22 construct: endogenous in cells; host or cells: A375 cell lysate

SMC3 = target: T23, SMC3 (Homo sapiens, UniProt Q9UQE7); experiment: ATPase profile (ATP acyl phosphate probe); type: binding; settings: SMC3, SEQ ID NO: 194, ATP BS
T23 construct: to get the native cell lysate; endogenous in cells; host or cells: A375 cell lysate

[2] = test system: panel of 233 diverse ATPases; experiment: ATP acyl phosphate probe assay, ATPase profile in native A375 cell lysates; type: binding; settings: 1 μM
ABCF3 = target: T24, ABCF3 (Homo sapiens, UniProt Q9NUQ8); experiment: ATPase profile (ATP acyl phosphate probe); type: binding; settings: ABCF3, SEQ ID NO: 19, ATP BS
T24 construct: to get the native cell lysate; host or cells: A375 cell lysate

HSP60 = target: T25, HSP60 (Homo sapiens, UniProt P10809); experiment: ATPase profile (ATP acyl phosphate probe); type: binding; settings: HSP60, SEQ ID NO: 94, ATP BS
T25 construct: to get the native cell lysate; endogenous in cells; host or cells: A375

Chain of PRKAG1 (P54619 whole entry): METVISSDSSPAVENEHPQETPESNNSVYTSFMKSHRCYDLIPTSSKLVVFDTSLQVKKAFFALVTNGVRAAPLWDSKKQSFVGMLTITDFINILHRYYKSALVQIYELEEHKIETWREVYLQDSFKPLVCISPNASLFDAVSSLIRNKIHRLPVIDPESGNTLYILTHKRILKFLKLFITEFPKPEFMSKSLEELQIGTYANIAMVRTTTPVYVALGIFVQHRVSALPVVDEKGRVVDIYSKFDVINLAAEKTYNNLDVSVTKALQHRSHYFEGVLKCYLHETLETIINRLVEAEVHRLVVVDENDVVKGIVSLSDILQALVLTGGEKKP
Chain of PRKAG1 (Q13131 whole entry partner): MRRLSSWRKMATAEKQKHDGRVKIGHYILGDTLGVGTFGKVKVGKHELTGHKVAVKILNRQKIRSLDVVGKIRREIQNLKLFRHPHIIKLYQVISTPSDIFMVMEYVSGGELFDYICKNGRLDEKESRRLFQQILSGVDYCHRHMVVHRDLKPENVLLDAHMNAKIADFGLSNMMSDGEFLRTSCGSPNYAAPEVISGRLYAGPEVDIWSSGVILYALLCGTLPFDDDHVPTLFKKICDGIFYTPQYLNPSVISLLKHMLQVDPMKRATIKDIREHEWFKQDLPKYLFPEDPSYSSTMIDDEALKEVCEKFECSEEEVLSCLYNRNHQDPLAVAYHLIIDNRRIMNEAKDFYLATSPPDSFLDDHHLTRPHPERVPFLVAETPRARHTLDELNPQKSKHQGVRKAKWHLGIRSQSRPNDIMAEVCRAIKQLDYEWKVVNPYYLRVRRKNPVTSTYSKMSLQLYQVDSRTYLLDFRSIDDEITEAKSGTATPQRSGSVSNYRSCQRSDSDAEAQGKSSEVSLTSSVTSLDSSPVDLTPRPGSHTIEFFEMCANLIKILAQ
Chain of PRKAG1 (Q9Y478 whole entry partner): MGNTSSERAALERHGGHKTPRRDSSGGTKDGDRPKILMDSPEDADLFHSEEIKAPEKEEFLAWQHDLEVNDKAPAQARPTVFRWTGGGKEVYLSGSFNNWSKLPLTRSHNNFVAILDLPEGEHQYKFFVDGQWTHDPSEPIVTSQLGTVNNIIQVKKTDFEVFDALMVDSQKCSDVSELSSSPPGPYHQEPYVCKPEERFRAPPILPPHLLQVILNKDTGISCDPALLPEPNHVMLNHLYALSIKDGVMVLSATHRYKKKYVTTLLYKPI
T1 sequence (Q9UG63 whole entry): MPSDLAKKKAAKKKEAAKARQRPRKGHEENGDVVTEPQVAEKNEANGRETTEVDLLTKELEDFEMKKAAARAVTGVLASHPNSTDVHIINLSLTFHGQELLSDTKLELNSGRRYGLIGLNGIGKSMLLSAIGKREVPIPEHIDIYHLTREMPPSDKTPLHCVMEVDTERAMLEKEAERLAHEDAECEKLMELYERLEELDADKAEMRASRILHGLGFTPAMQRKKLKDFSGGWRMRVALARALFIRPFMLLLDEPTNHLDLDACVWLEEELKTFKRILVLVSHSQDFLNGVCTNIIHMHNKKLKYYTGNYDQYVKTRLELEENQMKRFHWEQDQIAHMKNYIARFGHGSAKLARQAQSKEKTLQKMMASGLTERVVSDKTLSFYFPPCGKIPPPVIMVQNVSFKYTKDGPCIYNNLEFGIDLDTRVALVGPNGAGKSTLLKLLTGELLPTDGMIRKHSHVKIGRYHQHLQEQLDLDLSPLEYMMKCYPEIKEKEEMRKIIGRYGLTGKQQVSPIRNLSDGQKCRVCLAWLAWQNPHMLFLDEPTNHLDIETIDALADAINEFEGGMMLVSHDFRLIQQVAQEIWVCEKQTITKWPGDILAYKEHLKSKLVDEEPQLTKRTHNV
T18 sequence (P50583 whole entry): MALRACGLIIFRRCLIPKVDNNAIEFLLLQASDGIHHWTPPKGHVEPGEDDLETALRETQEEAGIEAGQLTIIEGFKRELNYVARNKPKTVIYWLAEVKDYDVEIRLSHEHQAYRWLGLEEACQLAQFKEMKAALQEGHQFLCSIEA
T20 sequence (Q9UBT2 whole entry): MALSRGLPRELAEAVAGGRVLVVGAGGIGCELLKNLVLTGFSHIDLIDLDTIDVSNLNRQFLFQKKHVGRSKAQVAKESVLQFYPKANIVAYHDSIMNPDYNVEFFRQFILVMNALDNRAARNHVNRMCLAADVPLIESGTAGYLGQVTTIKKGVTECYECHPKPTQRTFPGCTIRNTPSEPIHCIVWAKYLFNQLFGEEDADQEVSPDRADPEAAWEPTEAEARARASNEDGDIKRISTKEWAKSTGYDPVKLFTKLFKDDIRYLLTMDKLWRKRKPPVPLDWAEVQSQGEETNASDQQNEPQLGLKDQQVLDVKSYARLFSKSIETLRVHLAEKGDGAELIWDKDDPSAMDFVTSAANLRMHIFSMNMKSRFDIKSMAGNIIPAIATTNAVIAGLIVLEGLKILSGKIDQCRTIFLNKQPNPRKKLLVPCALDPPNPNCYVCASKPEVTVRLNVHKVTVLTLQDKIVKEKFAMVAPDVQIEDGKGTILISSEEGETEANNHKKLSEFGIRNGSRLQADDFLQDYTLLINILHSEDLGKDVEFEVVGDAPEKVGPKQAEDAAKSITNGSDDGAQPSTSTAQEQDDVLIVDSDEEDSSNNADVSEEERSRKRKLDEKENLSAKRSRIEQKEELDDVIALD
T20 sequence (Q9UBE0 whole entry partner): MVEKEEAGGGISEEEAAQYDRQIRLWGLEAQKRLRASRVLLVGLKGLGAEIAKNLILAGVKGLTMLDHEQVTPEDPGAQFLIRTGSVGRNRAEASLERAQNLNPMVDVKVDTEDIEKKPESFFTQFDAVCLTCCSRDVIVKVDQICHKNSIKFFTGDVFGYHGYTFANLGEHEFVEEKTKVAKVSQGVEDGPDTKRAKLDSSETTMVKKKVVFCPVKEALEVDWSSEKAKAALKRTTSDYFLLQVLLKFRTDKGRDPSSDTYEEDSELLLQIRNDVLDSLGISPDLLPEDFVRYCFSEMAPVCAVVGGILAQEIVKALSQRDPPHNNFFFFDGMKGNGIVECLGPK
T8 sequence (P08238 2-724 limits assumed): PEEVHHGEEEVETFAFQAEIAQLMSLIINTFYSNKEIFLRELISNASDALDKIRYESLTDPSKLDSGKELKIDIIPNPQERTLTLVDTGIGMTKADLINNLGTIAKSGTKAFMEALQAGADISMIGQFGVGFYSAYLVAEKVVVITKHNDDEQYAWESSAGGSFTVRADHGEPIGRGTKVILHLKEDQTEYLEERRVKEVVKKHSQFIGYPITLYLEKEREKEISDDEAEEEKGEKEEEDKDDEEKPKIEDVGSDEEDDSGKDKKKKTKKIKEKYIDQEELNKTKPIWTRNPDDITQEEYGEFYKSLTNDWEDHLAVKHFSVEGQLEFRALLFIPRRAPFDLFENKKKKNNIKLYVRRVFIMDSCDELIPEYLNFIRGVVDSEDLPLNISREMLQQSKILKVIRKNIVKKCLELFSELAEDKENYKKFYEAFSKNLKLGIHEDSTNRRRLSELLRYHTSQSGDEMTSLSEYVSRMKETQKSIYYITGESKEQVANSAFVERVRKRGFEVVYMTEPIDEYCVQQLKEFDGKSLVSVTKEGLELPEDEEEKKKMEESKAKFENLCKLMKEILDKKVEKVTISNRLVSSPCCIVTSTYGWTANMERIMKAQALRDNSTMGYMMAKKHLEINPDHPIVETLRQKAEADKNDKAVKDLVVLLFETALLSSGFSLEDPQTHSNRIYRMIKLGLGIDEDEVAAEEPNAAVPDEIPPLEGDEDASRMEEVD
T16 sequence (P14625 22-803): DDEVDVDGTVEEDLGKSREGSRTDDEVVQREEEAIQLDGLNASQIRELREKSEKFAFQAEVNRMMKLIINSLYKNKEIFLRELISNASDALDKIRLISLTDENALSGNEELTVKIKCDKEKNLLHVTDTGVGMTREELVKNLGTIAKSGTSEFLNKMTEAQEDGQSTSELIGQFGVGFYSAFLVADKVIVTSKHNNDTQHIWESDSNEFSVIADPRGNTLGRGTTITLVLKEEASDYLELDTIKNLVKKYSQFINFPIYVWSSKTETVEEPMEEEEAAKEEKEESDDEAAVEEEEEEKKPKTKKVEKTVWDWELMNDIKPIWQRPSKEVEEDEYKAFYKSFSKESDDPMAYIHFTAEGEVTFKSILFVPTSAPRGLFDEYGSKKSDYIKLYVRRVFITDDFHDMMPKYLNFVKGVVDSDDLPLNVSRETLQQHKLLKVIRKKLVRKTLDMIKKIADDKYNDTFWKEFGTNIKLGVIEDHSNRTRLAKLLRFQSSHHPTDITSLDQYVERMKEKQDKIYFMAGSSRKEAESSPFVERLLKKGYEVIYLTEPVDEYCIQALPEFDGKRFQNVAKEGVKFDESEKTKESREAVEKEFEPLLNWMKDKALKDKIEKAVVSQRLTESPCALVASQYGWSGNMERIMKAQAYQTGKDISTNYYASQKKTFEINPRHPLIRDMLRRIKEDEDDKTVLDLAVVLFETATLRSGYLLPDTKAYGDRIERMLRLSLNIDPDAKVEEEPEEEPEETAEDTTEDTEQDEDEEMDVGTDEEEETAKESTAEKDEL
T17 sequence (P14625 22-803): as above
T6 sequence (Q9H477 whole entry): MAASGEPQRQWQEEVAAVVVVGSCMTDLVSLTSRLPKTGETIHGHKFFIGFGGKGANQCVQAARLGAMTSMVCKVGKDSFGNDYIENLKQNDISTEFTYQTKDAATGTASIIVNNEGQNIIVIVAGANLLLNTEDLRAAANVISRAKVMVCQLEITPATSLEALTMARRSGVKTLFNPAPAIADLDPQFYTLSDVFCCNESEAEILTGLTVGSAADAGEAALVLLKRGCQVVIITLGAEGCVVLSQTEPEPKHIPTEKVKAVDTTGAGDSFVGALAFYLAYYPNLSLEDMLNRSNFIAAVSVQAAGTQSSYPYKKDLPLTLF

Cn1c(=O)[nH]c2ccc(-c3cccc(C(=O)NC4CCn5ccnc5C4)c3)cc21 (stereo not shown) [Z36-MP5, 3-(3-methyl-2-oxo-2,3-dihydro-1H-benzo[d]imidazol-5-yl)-N-(5,6,7,8-tetrahydroimidazo[1,2-a]pyridin-7-yl)benzamide]
Inhibition (%) by 1 μM Z36-MP5 (ABCF2; ABCF2, SEQ ID NO: 17, ATP BS): −7.92% | Inhibition (%) by 1 μM Z36-MP5 (ABCF2; ABCF2, SEQ ID NO: 18, ATP BS): 26.88% | Inhibition (%) by 1 μM Z36-MP5 (YME1L1): −10.37% | Inhibition (%) by 1 μM Z36-MP5 (NOP2): 1.98% | Inhibition (%) by 1 μM Z36-MP5 (CCT5): −2.48% | Inhibition (%) by 1 μM Z36-MP5 (PSMC6): −0.83% | Inhibition (%) by 1 μM Z36-MP5 (RBKS): −1.64% | Inhibition (%) by 1 μM Z36-MP5 (TOR1A): 4.27% | Inhibition (%) by 1 μM Z36-MP5 (HSP90AB1, HSP90AB3P): −16.94% | Inhibition (%) by 1 μM Z36-MP5 (PRKAG1; PRKAG1, SEQ ID NO: 167, ATP BS): −11.56% | Inhibition (%) by 1 μM Z36-MP5 (PRKAG1; PRKAG1, SEQ ID NO: 168, ATP BS): −7.08% | Inhibition (%) by 1 μM Z36-MP5 (ACTR2; ACTR2, SEQ ID NO: 25, ATP BS): −16.82% | Inhibition (%) by 1 μM Z36-MP5 (ACTR2; ACTR2, SEQ ID NO: 26, ATP BS): −2.20% | Inhibition (%) by 1 μM Z36-MP5 (ABCD3): 3.07% | Inhibition (%) by 1 μM Z36-MP5 (CCT2): −6.50% | Inhibition (%) by 1 μM Z36-MP5 (ABCB6): 8.49% | Inhibition (%) by 1 μM Z36-MP5 (RFC4): −6.66% | inhibition at 1 µM (MCM6; MCM6, SEQ ID NO: 119, ATP BS): -5.23% | inhibition at 1 µM (MCM6; MCM6, SEQ ID NO: 120, ATP BS): -2.54% | Inhibition (%) by 1 μM Z36-MP5 (NARS): 2.36% | Inhibition (%) by 1 μM Z36-MP5 (TRA1): −8.56% | inhibitory activity on Mi-2β function (enhanced expression of IFN-γ-responsive genes) [1]: most effective compound | inhibition at 1 µM (HSP90B2P, TRA1): -6.72% | Inhibition (%) by 1 μM Z36-MP5 (NUDT2; NUDT2, SEQ ID NO: 145, ATP BS): 19.18% | Inhibition (%) by 1 μM Z36-MP5 (NUDT2; NUDT2, SEQ ID NO: 146, ATP BS): 11.64% | Inhibition (%) by 1 μM Z36-MP5 (XRCC3): −4.81% | Inhibition (%) by 1 μM Z36-MP5 (UBA2; UBA2, SEQ ID NO: 218, ATP BS): 0.55% | Inhibition (%) by 1 μM Z36-MP5 (UBA2; UBA2, SEQ ID NO: 219, ATP BS): 7.64% | Inhibition (%) by 1 μM Z36-MP5 (SPG7): 0.12% | Inhibition (%) by 1 μM Z36-MP5 (CNP): −17.28% | Inhibition (%) by 1 μM Z36-MP5 (SMC3): −10.19% | inhibition against a panel of 233 diverse ATPases [2]: less than 35% | Inhibition (%) by 1 μM Z36-MP5 (ABCF3): 5.45% | Inhibition (%) by 1 μM Z36-MP5 (HSP60): 11.39%
